Laboratory results from PubChem BioAssay AID742 (SRMLSC, 2007).
Active and inactive are the calls of the source. The rule behind the calls is not given here.

Key:
[1] = inhibitors of Her2 kinase expression, dose response, cell-based, AlphaScreen, CellTiter-Glo viability (AID 742); conditions: human cells, Her2 expression AlphaScreen; CTG viability; at 9.62 µM (top of the series)
[2] = tested on: human cells, Her2 expression AlphaScreen; CTG viability; test: as above; conditions: viability, CellTiter-Glo

Row | Compound | Her2 inhibition [1] | EC50 [2] [µM]
1 | CN1/C(=C/C(=O)c2nc(S(C)(=O)=O)ncc2Cl)C(C)(C)c2ccccc21 | 23.3% (inactive) | > 9.62
2 | CC(C)(C)OC(=O)NCCc1nnc(S(=O)(=O)Cc2ccc(Cl)cc2Cl)o1 | -15.5% (inactive) | > 9.62
3 | CS(=O)(=O)c1ccc(Cl)c(NC(=O)COC(=O)CNC(=O)c2ccc(Br)o2)c1 | 5.14% (inactive) | > 9.62
4 | CCc1ccc(C2CC(=O)N3CN(c4ccccc4)CSC3=C2C#N)cc1 (centres undefined) | 21.4% (inactive) | > 9.62
5 | Cc1cccc(C)c1NC1=NCCCS1 | 6.69% (inactive) | > 9.62
6 | CCOC(=O)CCS(=O)(=O)c1nc(-c2ccccc2)cc(C(F)(F)F)n1 | 27.6% (inactive) | > 9.62
7 | COc1cc(NS(=O)(=O)c2ccc(C)cc2)c2ncccc2c1 | 18.5% (inactive) | > 9.62
8 | CC(=O)Nc1cccc(NC(=O)c2c(-c3ccccc3Cl)noc2C)c1 | -14.7% (inactive) | > 9.62
9 | CCN(CC)c1ccc2c(Cl)c(Br)c(=O)oc2c1 | 3.42% (inactive) | > 9.62
10 | CCOC(=O)c1c(-c2cccs2)csc1NC(=O)c1ccco1 | 17.4% (inactive) | > 9.62
11 | Cc1c(NC(=O)c2cccc(F)c2)c(=O)n(-c2ccccc2)n1C | 10.6% (inactive) | > 9.62
12 | Cc1cc2nnc(SC(C)C#N)n2c2ccccc12 (centres undefined) | -10.1% (inactive) | > 9.62
13 | O=C(Nc1ccc2c(c1)OCO2)c1cnn2cccnc12 | -5.1% (inactive) | > 9.62
14 | CCCCC(C(=O)O)C(C)CC(=O)Nc1cccc(C(=O)O)c1 (centres undefined) | -10.2% (inactive) | > 9.62
15 | CCCCCN=Cc1c(C)[nH]n(-c2nc3ccccc3s2)c1=O | -1.78% (inactive) | > 9.62
16 | Nc1nc(-c2cccs2)c(NC(=O)c2ccccc2)s1 | -8.18% (inactive) | > 9.62

Row | Compound | Her2 inhibition [1] | EC50 [2] [µM]
17 | O=C1C2=C(SCCS2)C(=O)N1CCCO | -25% (inactive) | > 9.62
18 | Cc1cc(NC(=O)CNC(=O)C2CCCCC2)no1 | 12.1% (inactive) | > 9.62
19 | CC1CN(c2oc(COc3ccc(Cl)cc3Cl)nc2C#N)CC(C)O1 (centres undefined) | -17.3% (inactive) | > 9.62
20 | O=C(Cc1cscn1)c1ccc(O)cc1O | 3.58% (inactive) | > 9.62
21 | CCN(CC(=O)NC1CCCCCC1)S(=O)(=O)c1ccccc1 | -2.97% (inactive) | > 9.62
22 | COC(=O)c1[nH]c2ccc(Br)cc2c1NC(=O)C(C)N1CCN(C2CCCCC2)CC1 (centres undefined) | -20.7% (inactive) | > 9.62
23 | CCCCNC(=O)OCCNC(=O)NC | -40% (inactive) | > 9.62
24 | O=S(=O)(CCSc1nc2ccccc2o1)c1nc2ccccc2s1 | -10.1% (inactive) | > 9.62
25 | CCc1ccc2oc(-c3cc(N=Cc4cccc(OC)c4O)ccc3O)nc2c1 | 20.2% (inactive) | > 9.62
26 | Cc1ccc(S(=O)(=O)N2CCC(C(=O)N[C@@H](C)C(=O)NCCc3ccccc3)CC2)cc1 | -5.1% (inactive) | > 9.62
27 | O=C1CC(Sc2nnc(-c3ccccc3O)o2)C(=O)N1c1ccccc1 (centres undefined) | -8.42% (inactive) | > 9.62
28 | CCOC(=O)Cn1nnnc1C(CC)N(Cc1cccs1)Cc1cc2ccc(OC)cc2[nH]c1=O (centres undefined) | 22.9% (inactive) | > 9.62
29 | FC(F)(F)c1ccc(N2CCOCC2)c(Nc2nc3ccccc3n3cnnc23)c1 | -15.5% (inactive) | > 9.62
30 | Nc1nc2n(n1)C(c1cccs1)CC(c1ccc(Br)cc1)N2 (centres undefined) | -10.7% (inactive) | > 9.62
31 | [O-][N+]1=c2ccc(Nc3ccccc3)cc2=NC12CCCCC2 | -11% (inactive) | > 9.62
32 | Cn1nnnc1Sc1ncnc2scc(-c3ccccc3)c12 | 41.9% (inactive) | > 9.62
